ChEMBL document CHEMBL1287680, “C-11 diamino cryptolepine derivatives NSC748392, NSC748393, and NSC748394: anticancer profile and G-quadruplex stabilization” (Bioorg Med Chem Lett, 2010)

What was measured:
T47D = assay: cells; details: Homo sapiens
Description: Anticancer activity against human T47D cells

HOP-92 = assay: cells; details: Homo sapiens
Description: Anticancer activity against human HOP92 cells

ACHN = assay: cells; details: Homo sapiens
Description: Anticancer activity against human ACHN cells

NCI-H322M = assay: cells; details: Homo sapiens
Description: Anticancer activity against human NCI-H322M cells

UO-31 = assay: cells; details: Homo sapiens
Description: Anticancer activity against human UO31 cells

NCI-H522 = assay: cells; details: Homo sapiens
Description: Anticancer activity against human NCI-H522 cells

BT-549 = assay: cells; details: Homo sapiens
Description: Anticancer activity against human BT549 cells

HL-60(TB) = assay: cells; details: Homo sapiens
Description: Anticancer activity against human HL-60(TB) cells

NCI-H23 = assay: cells; details: Homo sapiens
Description: Anticancer activity against human NCI-H23 cells

SN12C = assay: cells; details: Homo sapiens
Description: Anticancer activity against human SN12C cells

MOLT-4 = assay: cells; details: Homo sapiens
Description: Anticancer activity against human MOLT4 cells

OVCAR-8 = assay: cells; details: Homo sapiens
Description: Anticancer activity against human OVCAR8 cells

SW-620 = assay: cells; details: Homo sapiens
Description: Anticancer activity against human SW620 cells

in vivo = details: mouse, cancer cell lines
Description: Toxicity in cancer cells containing hollow fiber implanted mouse

MDA-MB-231 = assay: cells; details: Homo sapiens
Description: Anticancer activity against human MDA-MB-231 cells

SK-OV-3 = assay: cells; details: Homo sapiens
Description: Anticancer activity against human SKOV3 cells

UACC-257 = assay: cells; details: Homo sapiens
Description: Anticancer activity against human UACC257 cells

CAKI-1 = assay: cells; details: Homo sapiens
Description: Anticancer activity against human Caki1 cells

DU-145 = assay: cells; details: Homo sapiens
Description: Anticancer activity against human DU145 cells

OVCAR-5 = assay: cells; details: Homo sapiens
Description: Anticancer activity against human OVCAR5 cells

KM12 = assay: cells; details: Homo sapiens
Description: Anticancer activity against human KM12 cells

OVCAR-3 = assay: cells; details: Homo sapiens
Description: Anticancer activity against human OVCAR-3 cells

K562 = assay: cells; details: Homo sapiens
Description: Anticancer activity against human K562 cells

HOP-62 = assay: cells; details: Homo sapiens
Description: Anticancer activity against human HOP62 cells

PC-3 = assay: cells; details: Homo sapiens
Description: Anticancer activity against human PC3 cells

HCC 2998 = assay: cells; details: Homo sapiens
Description: Anticancer activity against human HCC2998 cells

SNB-19 = assay: cells; details: Homo sapiens
Description: Anticancer activity against human SNB19 cells

SK-MEL-5 = assay: cells; details: Homo sapiens
Description: Anticancer activity against human SK-MEL-5 cells

MCF7 = assay: cells; details: Homo sapiens
Description: Anticancer activity against human MCF7 cells

SK-MEL-28 = assay: cells; details: Homo sapiens
Description: Anticancer activity against human SK-MEL-28 cells

HCT-15 = assay: cells; details: Homo sapiens
Description: Anticancer activity against human HCT15 cells

Nucleic Acid = details: Homo sapiens
Description: Binding affinity to human duplex DNA assessed as change in melting temperature by FRET-melting assay

Vero = assay: cells; details: Chlorocebus sabaeus, 48 h
Description: Cytotoxicity against african green monkey Vero cells after 48 hrs by MTT assay

Malme-3M = assay: cells; details: Homo sapiens
Description: Anticancer activity against human MALME-3M cells

## CCN(CC)CCCCNc1c2ccccc2[n+](C)c2c1[nH]c1ccccc12.[Cl-]
T47D; read-out: pGI50 (converted)
  GI50: 129 nM
T47D; read-out: pLC50 (converted)
  CC50: 25.7 µM
T47D; read-out: pTGI
  TGI: 776 nM
HOP-92; HOP-92, read-out: pGI50 (converted)
  GI50: 263 nM
HOP-92; HOP-92, read-out: pLC50 (converted)
  CC50: > 100 µM
HOP-92; HOP-92, read-out: pTGI
  TGI: 955 nM
ACHN; read-out: pGI50 (converted)
  GI50: 2950 nM
ACHN; read-out: pLC50 (converted)
  CC50: > 100 µM
ACHN; read-out: pTGI
  TGI: 22.4 µM
NCI-H322M; read-out: pGI50 (converted)
  GI50: 275 nM
NCI-H322M; read-out: pLC50 (converted)
  CC50: > 100 µM
NCI-H322M; read-out: pTGI
  TGI: 2750 nM
UO-31; UO-31, read-out: pGI50 (converted)
  GI50: 2400 nM
UO-31; UO-31, read-out: pLC50 (converted)
  CC50: > 100 µM
UO-31; UO-31, read-out: pTGI
  TGI: 25.7 µM
NCI-H522; NCI-H522, read-out: pGI50 (converted)
  GI50: 148 nM
NCI-H522; NCI-H522, read-out: pLC50 (converted)
  CC50: 1820 nM
NCI-H522; NCI-H522, read-out: pTGI
  TGI: 457 nM
BT-549; BT-549, read-out: pGI50 (converted)
  GI50: 1380 nM
BT-549; BT-549, read-out: pLC50 (converted)
  CC50: 7.94 µM
BT-549; BT-549, read-out: pTGI
  TGI: 3.31 µM
HL-60(TB); HL-60, read-out: pGI50 (converted)
  GI50: 20.4 µM
HL-60(TB); HL-60, read-out: pLC50 (converted)
  CC50: > 100 µM
HL-60(TB); HL-60, read-out: pTGI
  TGI: > 100 µM
NCI-H23; NCI-H23, read-out: pGI50 (converted)
  GI50: 191 nM
NCI-H23; NCI-H23, read-out: pLC50 (converted)
  CC50: 3.47 µM
NCI-H23; NCI-H23, read-out: pTGI
  TGI: 724 nM
SN12C; read-out: pGI50 (converted)
  GI50: 52.5 nM
SN12C; read-out: pLC50 (converted)
  CC50: > 72.4 µM
SN12C; read-out: pTGI
  TGI: 3.24 µM
MOLT-4; MOLT-4, read-out: pGI50 (converted)
  GI50: 339 nM
MOLT-4; MOLT-4, read-out: pLC50 (converted)
  CC50: > 100 µM
MOLT-4; MOLT-4, read-out: pTGI
  TGI: 42.7 µM
OVCAR-8; OVCAR-8, read-out: pGI50 (converted)
  GI50: 617 nM
OVCAR-8; OVCAR-8, read-out: pLC50 (converted)
  CC50: > 100 µM
OVCAR-8; OVCAR-8, read-out: pTGI
  TGI: 10.2 µM
SW-620; SW-620, read-out: pGI50 (converted)
  GI50: 339 nM
SW-620; SW-620, read-out: pLC50 (converted)
  CC50: > 100 µM
SW-620; SW-620, read-out: pTGI
  TGI: 5.25 µM
In vivo
  MTD: 50 mg/kg
MDA-MB-231; MDA-MB-231, read-out: pGI50 (converted)
  GI50: > 100 µM
MDA-MB-231; MDA-MB-231, read-out: pLC50 (converted)
  CC50: 100 µM
MDA-MB-231; MDA-MB-231, read-out: pTGI
  TGI: > 100 µM
SK-OV-3; SK-OV-3, read-out: pGI50 (converted)
  GI50: 251 nM
SK-OV-3; SK-OV-3, read-out: pLC50 (converted)
  CC50: 100 µM
SK-OV-3; SK-OV-3, read-out: pTGI
  TGI: 1820 nM
UACC-257; UACC-257, read-out: pGI50 (converted)
  GI50: 1550 nM
UACC-257; UACC-257, read-out: pLC50 (converted)
  CC50: > 100 µM
UACC-257; UACC-257, read-out: pTGI
  TGI: 5.75 µM
CAKI-1; CAKI-1, read-out: pGI50 (converted)
  GI50: 6.92 µM
CAKI-1; CAKI-1, read-out: pLC50 (converted)
  CC50: 100 µM
CAKI-1; CAKI-1, read-out: pTGI
  TGI: 32.4 µM
DU-145; DU-145, read-out: pGI50 (converted)
  GI50: 170 nM
DU-145; DU-145, read-out: pLC50 (converted)
  CC50: 89.1 µM
DU-145; DU-145, read-out: pTGI
  TGI: 10 µM
OVCAR-5; OVCAR-5, read-out: pGI50 (converted)
  GI50: 851 nM
OVCAR-5; OVCAR-5, read-out: pLC50 (converted)
  CC50: > 100 µM
OVCAR-5; OVCAR-5, read-out: pTGI
  TGI: 4.17 µM
KM12; KM12, read-out: pGI50 (converted)
  GI50: 372 nM
KM12; KM12, read-out: pLC50 (converted)
  CC50: 70.8 µM
KM12; KM12, read-out: pTGI
  TGI: 4.47 µM
OVCAR-3; OVCAR-3, read-out: pGI50 (converted)
  GI50: 427 nM
OVCAR-3; OVCAR-3, read-out: pLC50 (converted)
  CC50: > 100 µM
OVCAR-3; OVCAR-3, read-out: pTGI
  TGI: 2450 nM
K562; K562, read-out: pLC50 (converted)
  CC50: > 100 µM
K562; K562, read-out: pTGI
  TGI: > 100 µM
HOP-62; HOP-62, read-out: pGI50 (converted)
  GI50: 1100 nM
HOP-62; HOP-62, read-out: pLC50 (converted)
  CC50: 61.7 µM
HOP-62; HOP-62, read-out: pTGI
  TGI: 4.47 µM
PC-3; PC-3, read-out: pGI50 (converted)
  GI50: 324 nM
PC-3; PC-3, read-out: pLC50 (converted)
  CC50: 100 µM
PC-3; PC-3, read-out: pTGI
  TGI: 2240 nM
HCC 2998; HCC 2998, read-out: pGI50 (converted)
  GI50: 269 nM
HCC 2998; HCC 2998, read-out: pLC50 (converted)
  CC50: 3.63 µM
HCC 2998; HCC 2998, read-out: pTGI
  TGI: 759 nM
SNB-19; SNB-19, read-out: pGI50 (converted)
  GI50: 224 nM
SNB-19; SNB-19, read-out: pLC50 (converted)
  CC50: 89.1 µM
SNB-19; SNB-19, read-out: pTGI
  TGI: 871 nM
SK-MEL-5; SK-MEL-5, read-out: pGI50 (converted)
  GI50: 219 nM
SK-MEL-5; SK-MEL-5, read-out: pLC50 (converted)
  CC50: 2240 nM
SK-MEL-5; SK-MEL-5, read-out: pTGI
  TGI: 617 nM
MCF7; MCF7, read-out: pGI50 (converted)
  GI50: 224 nM
MCF7; MCF7, read-out: pLC50 (converted)
  CC50: > 36.3 µM
MCF7; MCF7, read-out: pTGI
  TGI: 794 nM
SK-MEL-28; SK-MEL-28, read-out: pGI50 (converted)
  GI50: 186 nM
SK-MEL-28; SK-MEL-28, read-out: pLC50 (converted)
  CC50: 1740 nM
SK-MEL-28; SK-MEL-28, read-out: pTGI
  TGI: 490 nM
HCT-15; HCT-15, read-out: pGI50 (converted)
  GI50: 11.5 µM
HCT-15; HCT-15, read-out: pLC50 (converted)
  CC50: > 100 µM
HCT-15; HCT-15, read-out: pTGI
  TGI: 49 µM
Nucleic Acid
  ΔTm: 13.1 °C
Vero
  IC50: 62 µM
Malme-3M; read-out: pGI50 (converted)
  GI50: 204 nM
Malme-3M; read-out: pLC50 (converted)
  CC50: 2510 nM
Malme-3M; read-out: pTGI
  TGI: 646 nM
